Values of other authors, collected in US11628185B2, “Stabilized active oxygen-generating antiseptic compositions, irrigation solutions, and articles” (priority 2021, dated 2023).

Legend:
[1] = system: osteoblasts, fibroblasts, and myoblasts
[2] = all tested concentrations, even dilute 0.35%; used for more than 1 minute
[3] = system: post-operative infection
[4] = topical application prior to wound closure

Substance: povidone-iodine
- effect on cell migration and survival [1]: inhibiting cell migration and survival
- chondrotoxic effect [2]: pronounced chondrotoxic effect
- effect of lavage on post-operative infection risk ([3]; Mayo Clinic case series, more than 10,000 THAs and TKAs): no risk reduction effect
- post-operative infection rates versus non-povidone-iodine lavage ([3]; meta-analysis March 2020, seven studies, 31,213 TJA cases): no differences
- serum iodine level [4]: significant increases
